In patent US20260048047A1, “SMALL-MOLECULE ACTIVATORS OF MYCOBACTERIUM TUBERCULOSIS ADENYLYL CYCLASE” (priority 2022, published 2026) one finds EC50 data, which are given here for 35 molecules.

Structures are written as SMILES. pEC50: −log10 of the molar value.

The test system of the experiment is M. tuberculosis. The experiment in a line: Extracellular activity against M. tuberculosis in cholesterol media (Alamar Blue reduction assay). The experiment is classed as cell-based, Mycobacterium tuberculosis. The settings on record: Mycobacterium tuberculosis, 240 h, 7H12-Cholesterol media, 10 days; read-out: Cholesterol broth: alamar blue--EC50.
A word on the pEC50: it is −log10 of the EC50, conventionally taken in molar units. With `Cc1nonc1CC(=O)N1CCC(c2nc(C3CCCC4CC43)no2)CC1` (centres unmarked) [Compound 72, 1-(4-(3-(bicyclo[4.1.0]heptan-2-yl)-1,2,4-oxadiazol-5-yl)piperidin-1-yl)-2-(4-methyl-1,2,5-oxadiazol-3-yl)ethan-1-one], the pEC50 was below 5.00.
Consider `Cc1nonc1CC(=O)N1CCC(c2nc(C3CCCCC3)no2)CC1` [Compound 73, 1-(4-(3-cyclohexyl-1,2,4-oxadiazol-5-yl)piperidin-1-yl)-2-(4-methyl-1,2,5-oxadiazol-3-yl)ethan-1-one], for which the pEC50 is 6.17.
As to `Cc1nonc1CC(=O)N1CCC(n2nnc(C3CCCCC3)n2)CC1` [Compound 74, 1-(4-(5-cyclohexyl-2H-tetrazol-2-yl)piperidin-1-yl)-2-(4-methyl-1,2,5-oxadiazol-3-yl)ethan-1-one], the pEC50 was 5.68.
Then `Cc1nonc1CC(=O)N1CCC(O)(c2nc(C3CCCCC3)no2)CC1` [Compound 75, 1-(4-(3-cyclohexyl-1,2,4-oxadiazol-5-yl)-4-hydroxypiperidin-1-yl)-2-(4-methyl-1,2,5-oxadiazol-3-yl)ethan-1-one], with below 5.00.
The value for `Cc1nonc1CC(=O)N1CCC(c2nc(C3CCOCC3)no2)CC1` [Compound 76, 2-(4-methyl-1,2,5-oxadiazol-3-yl)-1-(4-(3-(tetrahydro-2H-pyran-4-yl)-1,2,4-oxadiazol-5-yl)piperidin-1-yl)ethan-1-one] was below 5.00.
The value for `Cc1nonc1CC(=O)N1CCC(c2noc(C34CCC(CC3)C4)n2)CC1` [Compound 77, 1-(4-(5-(bicyclo[2.2.1]heptan-1-yl)-1,2,4-oxadiazol-3-yl)piperidin-1-yl)-2-(4-methyl-1,2,5-oxadiazol-3-yl)ethan-1-one] was below 4.60.
As for `Cc1nonc1CC(=O)N1CCC(c2nc(C34CCC(CC3)C4)no2)CC1` [Compound 78, 1-(4-(3-(bicyclo[2.2.1]heptan-1-yl)-1,2,4-oxadiazol-5-yl)piperidin-1-yl)-2-(4-methyl-1,2,5-oxadiazol-3-yl)ethan-1-one], the pEC50 is 5.42.
Turning to `Cc1nonc1CC(=O)N1CCC(n2ccc(-c3ccccc3)n2)CC1` [Compound 79, 2-(4-methyl-1,2,5-oxadiazol-3-yl)-1-(4-(3-phenyl-1H-pyrazol-1-yl)piperidin-1-yl)ethan-1-one], the pEC50 is below 5.00.
`Cc1nonc1CC(=O)N1CCC(n2nnc(-c3ccccc3)n2)CC1` [Compound 80, 2-(4-methyl-1,2,5-oxadiazol-3-yl)-1-(4-(5-phenyl-2H-tetrazol-2-yl)piperidin-1-yl)ethan-1-one, reference compound]: the pEC50 was 5.80.
Then `Cc1nnn(C2CCN(C(=O)Cc3nonc3C)CC2)n1` [Compound 81, 2-(4-methyl-1,2,5-oxadiazol-3-yl)-1-(4-(5-methyl-2H-tetrazol-2-yl)piperidin-1-yl)ethan-1-one], with below 5.00; and `Cc1noc(C2CCN(C(=O)Cc3nonc3C)CC2)n1` [Compound 82, 1-(4-(3-methyl-1,2,4-oxadiazol-5-yl)piperidin-1-yl)-2-(4-methyl-1,2,5-oxadiazol-3-yl)ethan-1-one], with below 5.00; and `Cc1nonc1CC(=O)N1CCC(c2nc(C(C)C)no2)CC1` [Compound 83, 1-(4-(3-isopropyl-1,2,4-oxadiazol-5-yl)piperidin-1-yl)-2-(4-methyl-1,2,5-oxadiazol-3-yl)ethan-1-one], with below 5.00.
Then `Cc1nonc1CC(=O)N1CCC(c2nc(C3(C)CCCCC3)no2)CC1` [Compound 84, 2-(4-methyl-1,2,5-oxadiazol-3-yl)-1-(4-(3-(1-methylcyclohexyl)-1,2,4-oxadiazol-5-yl)piperidin-1-yl)ethan-1-one], with 5.67; and `Cc1nonc1CC(=O)N1CCC(c2nc(C3(C)COC3)no2)CC1` [Compound 85, 2-(4-methyl-1,2,5-oxadiazol-3-yl)-1-(4-(3-(3-methyloxetan-3-yl)-1,2,4-oxadiazol-5-yl)piperidin-1-yl)ethan-1-one], with below 5.00.
Then `Cc1nonc1CC(=O)N1CCC(c2nc(C3CC3(C)C)no2)CC1` (centres unmarked) [Compound 86, 1-(4-(3-(2,2-dimethylcyclopropyl)-1,2,4-oxadiazol-5-yl)piperidin-1-yl)-2-(4-methyl-1,2,5-oxadiazol-3-yl)ethan-1-one], with 5.74.
As to `Cc1nonc1CC(=O)N1CCC(c2nc(C3CCC(C)(C)C3)no2)CC1` (centres unmarked) [Compound 87, 1-(4-(3-(3,3-dimethylcyclopentyl)-1,2,4-oxadiazol-5-yl)piperidin-1-yl)-2-(4-methyl-1,2,5-oxadiazol-3-yl)ethan-1-one], the pEC50 is 6.60.
On to `Cc1nonc1CC(=O)N1CCC(c2nc(C3CCC(C)(C)CC3)no2)CC1` [Compound 88, 1-(4-(3-(4,4-dimethylcyclohexyl)-1,2,4-oxadiazol-5-yl)piperidin-1-yl)-2-(4-methyl-1,2,5-oxadiazol-3-yl)ethan-1-one], for which the pEC50 is 6.74.
Then `Cc1nonc1CC(=O)N1CCC(c2nc(C3CCCC(C)(C)C3)no2)CC1` (centres unmarked) [Compound 89, 1-(4-(3-(3,3-dimethylcyclohexyl)-1,2,4-oxadiazol-5-yl)piperidin-1-yl)-2-(4-methyl-1,2,5-oxadiazol-3-yl)ethan-1-one], with 6.29; and `Cc1nonc1CC(=O)N1CCC(c2noc(C34CC(C)(C3)C4)n2)CC1` [Compound 90, 2-(4-methyl-1,2,5-oxadiazol-3-yl)-1-(4-(5-(3-methylbicyclo[1.1.1]pentan-1-yl)-1,2,4-oxadiazol-3-yl)piperidin-1-yl)ethan-1-one], with 5.69.
In the case of `COC(C)c1noc(C2CCN(C(=O)Cc3nonc3C)CC2)n1` (centres unmarked) [Compound 91, 1-(4-(3-(1-methoxyethyl)-1,2,4-oxadiazol-5-yl)piperidin-1-yl)-2-(4-methyl-1,2,5-oxadiazol-3-yl)ethan-1-one], the pEC50 was below 5.00.
On to `COCc1noc(C2CCN(C(=O)Cc3nonc3C)CC2)n1` [Compound 92, 1-(4-(3-(methoxymethyl)-1,2,4-oxadiazol-5-yl)piperidin-1-yl)-2-(4-methyl-1,2,5-oxadiazol-3-yl)ethan-1-one], for which the pEC50 is below 5.00.
The value for `Cc1nonc1CC(=O)N1CCC(c2nc(-c3ccc(Cl)cc3Cl)no2)CC1` [Compound 94, 1-(4-(3-(2,4-dichlorophenyl)-1,2,4-oxadiazol-5-yl)piperidin-1-yl)-2-(4-methyl-1,2,5-oxadiazol-3-yl)ethan-1-one] was 6.84.
The value for `Cc1nonc1CC(=O)N1CCC(c2nc(-c3ccc(Cl)c(Cl)c3)no2)CC1` [Compound 95, 1-(4-(3-(3,4-dichlorophenyl)-1,2,4-oxadiazol-5-yl)piperidin-1-yl)-2-(4-methyl-1,2,5-oxadiazol-3-yl)ethan-1-one] was 7.19; that for `Cc1nonc1CC(=O)N1CCC(O)(c2nc(-c3ccc(Cl)c(Cl)c3)no2)CC1` [Compound 96, 1-(4-(3-(3,4-dichlorophenyl)-1,2,4-oxadiazol-5-yl)-4-hydroxypiperidin-1-yl)-2-(4-methyl-1,2,5-oxadiazol-3-yl)ethan-1-one] was 6.21; that for `Cc1nonc1CC(=O)N1CCC(n2nnc(-c3ccc(Cl)cc3)n2)CC1` [Compound 97, 1-(4-(5-(4-chlorophenyl)-2H-tetrazol-2-yl)piperidin-1-yl)-2-(4-methyl-1,2,5-oxadiazol-3-yl)ethan-1-one] was 6.83.
The value for `Cc1nonc1CC(=O)N1CCC(c2nc(-c3ccc(Cl)cc3)no2)CC1` [Compound 98, 1-(4-(3-(4-chlorophenyl)-1,2,4-oxadiazol-5-yl)piperidin-1-yl)-2-(4-methyl-1,2,5-oxadiazol-3-yl)ethan-1-one] was 6.94; that for `Cc1nonc1CC(=O)N1CCC(c2nc(-c3cccc(Cl)c3)no2)CC1` [Compound 99, 1-(4-(3-(3-chlorophenyl)-1,2,4-oxadiazol-5-yl)piperidin-1-yl)-2-(4-methyl-1,2,5-oxadiazol-3-yl)ethan-1-one] was 6.28; that for `Cc1nonc1CC(=O)N1CCC(c2nc(C3CCC(C(F)(F)F)CC3)no2)CC1` (centres unmarked) [Compound 100, 2-(4-methyl-1,2,5-oxadiazol-3-yl)-1-(4-(3-(4-(trifluoromethyl)cyclohexyl)-1,2,4-oxadiazol-5-yl)piperidin-1-yl)ethan-1-one] was 6.16.
For the molecule `Cc1nonc1CC(=O)N1CCC(c2nc(-c3ccc(Cl)c(OC(F)(F)F)c3)no2)CC1` [Compound 101], the pEC50 was 6.14.
The value for `Cc1nonc1CC(=O)N1CCC(c2nc(-c3ccc(OC(F)(F)F)cc3)no2)CC1` [Compound 102, 2-(4-methyl-1,2,5-oxadiazol-3-yl)-1-(4-(3-(4-(trifluoromethoxy)phenyl)-1,2,4-oxadiazol-5-yl)piperidin-1-yl)ethan-1-one] was 6.78; that for `Cc1nonc1CC(=O)N1CCC(c2nc(-c3cccc(OC(F)(F)F)c3)no2)CC1` [Compound 103, 2-(4-methyl-1,2,5-oxadiazol-3-yl)-1-(4-(3-(3-(trifluoromethoxy)phenyl)-1,2,4-oxadiazol-5-yl)piperidin-1-yl)ethan-1-one] was 6.42; that for `Cc1nonc1CC(=O)N1CCC(c2nc(-c3ccccc3OC(F)(F)F)no2)CC1` [Compound 104, 2-(4-methyl-1,2,5-oxadiazol-3-yl)-1-(4-(3-(2-(trifluoromethoxy)phenyl)-1,2,4-oxadiazol-5-yl)piperidin-1-yl)ethan-1-one] was 5.53.
The value for `Cc1nonc1CC(=O)N1CCC(c2nc(-c3ccc(Cl)c(C(F)(F)F)c3)no2)CC1` [Compound 105, 1-(4-(3-(4-chloro-3-(trifluoromethyl)phenyl)-1,2,4-oxadiazol-5-yl)piperidin-1-yl)-2-(4-methyl-1,2,5-oxadiazol-3-yl)ethan-1-one] was 6.13; that for `Cc1nonc1CC(=O)N1CCC(c2nc(-c3ccc(C(F)(F)F)cc3)no2)CC1` [Compound 106, 2-(4-methyl-1,2,5-oxadiazol-3-yl)-1-(4-(3-(4-(trifluoromethyl)phenyl)-1,2,4-oxadiazol-5-yl)piperidin-1-yl)ethan-1-one] was 6.12; that for `Cc1nonc1CC(=O)N1CCC(c2nc(-c3ccc(OC(F)F)cc3)no2)CC1` [Compound 108, 1-(4-(3-(4-(difluoromethoxy)phenyl)-1,2,4-oxadiazol-5-yl)piperidin-1-yl)-2-(4-methyl-1,2,5-oxadiazol-3-yl)ethan-1-one] was 6.15.
